Experimental data taken from publication PMC9851200, “Multiparameter phenotypic screening for endogenous TFEB and TFE3 translocation identifies novel chemical series modulating lysosome function” (Autophagy, 2022).

Target: STK10/LOK (Homo sapiens, UniProt O94804)
Type: binding

Chain of STK10/LOK (O94804 whole entry): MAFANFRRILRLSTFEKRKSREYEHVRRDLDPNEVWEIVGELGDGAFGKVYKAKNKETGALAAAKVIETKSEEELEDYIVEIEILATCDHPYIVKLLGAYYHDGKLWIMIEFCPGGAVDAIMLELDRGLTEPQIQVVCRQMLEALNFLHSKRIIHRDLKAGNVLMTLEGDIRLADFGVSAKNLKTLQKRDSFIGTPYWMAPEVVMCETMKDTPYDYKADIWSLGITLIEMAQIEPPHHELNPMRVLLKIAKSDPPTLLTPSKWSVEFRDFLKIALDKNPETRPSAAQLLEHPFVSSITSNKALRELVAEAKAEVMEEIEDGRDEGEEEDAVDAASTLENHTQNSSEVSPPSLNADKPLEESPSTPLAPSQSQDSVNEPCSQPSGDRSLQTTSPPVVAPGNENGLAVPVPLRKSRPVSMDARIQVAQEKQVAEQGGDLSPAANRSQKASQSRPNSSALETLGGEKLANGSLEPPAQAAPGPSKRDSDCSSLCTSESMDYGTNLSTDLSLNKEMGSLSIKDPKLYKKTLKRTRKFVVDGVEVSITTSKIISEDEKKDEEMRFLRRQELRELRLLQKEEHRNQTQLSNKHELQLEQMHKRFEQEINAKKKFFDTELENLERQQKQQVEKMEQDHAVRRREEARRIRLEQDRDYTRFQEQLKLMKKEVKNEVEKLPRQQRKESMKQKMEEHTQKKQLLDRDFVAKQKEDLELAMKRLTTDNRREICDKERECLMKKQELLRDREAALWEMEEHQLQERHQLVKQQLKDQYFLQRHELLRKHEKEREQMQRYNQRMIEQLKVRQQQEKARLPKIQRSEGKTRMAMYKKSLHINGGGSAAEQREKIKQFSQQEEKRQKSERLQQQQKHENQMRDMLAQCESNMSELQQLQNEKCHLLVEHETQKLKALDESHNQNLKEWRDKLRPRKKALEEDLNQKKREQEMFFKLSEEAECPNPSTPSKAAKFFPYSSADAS

Compound: Cc1cccc(-c2nc(N(C)c3ccc4ncsc4c3)c3ccccc3n2)n1 [NK-161]
- KINOMEscan STK10/LOK: 19
